Measurements published in the supplement of paper PMC10307832.

Columns and labels:
Experiment in all cases: relative viability (nuclei count vs DMSO), 5 days (fraction); higher = more cells survive
[1] = compound: Cc1ccc(C(=O)Nc2ccc(CN3CCN(C)CC3)c(C(F)(F)F)c2)cc1C#Cc1cnc2cccnn12 [Ponatinib] + Cc1nc(Nc2ncc(C(=O)Nc3c(C)cccc3Cl)s2)cc(N2CCN(CCO)CC2)n1 [Dasatinib] (partner 0.075 µM)
Outline: (§1)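 After 5 days of treatment, lung cancer cells in 1536-well plates were fixed and stained in a single step (final 0.05% Triton X-100, 1% formaldehyde, 1 ug/ml Hoechst) and their nuclei counted on 4× images. Treatment had been applied by pin tool the day after seeding as one drug alone or as a fixed anchor-drug dose with five library-drug doses (not always all listed) in √10 steps. Relative viability is the nuclei count of treated wells divided by that of vehicle wells, and values are medians of duplicate plates.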

[2] = compound: Cc1ccc(Nc2nccc(N(C)c3ccc4c(C)n(C)nc4c3)n2)cc1S(N)(=O)=O [Pazopanib] + COc1cc2c(Oc3ccc(NC(=O)C4(C(=O)Nc5ccc(F)cc5)CC4)cc3F)ccnc2cc1OCCCN1CCOCC1 [Foretinib] (partner 0.25 µM)
Outline: as §1

[3] = compound: Cc1ccc(C(=O)Nc2ccc(CN3CCN(C)CC3)c(C(F)(F)F)c2)cc1C#Cc1cnc2cccnn12 [Ponatinib] + CC(C)C[C@H](NC(=O)[C@H](Cc1ccccc1)NC(=O)c1cnccn1)B(O)O [Bortezomib] (partner 0.002 µM)
Outline: as §1

[4] = compound: Cc1ccc(Nc2nccc(N(C)c3ccc4c(C)n(C)nc4c3)n2)cc1S(N)(=O)=O [Pazopanib] + CC(=O)Nc1cccc(-n2c(=O)n(C3CC3)c(=O)c3c(Nc4ccc(I)cc4F)n(C)c(=O)c(C)c32)c1 [Trametinib] (partner 0.02 µM)
Outline: as §1

Cell Line | relative viability ([1]; first compound 0.002 µM) | relative viability ([1]; first compound 0.006325 µM) | relative viability ([1]; first compound 0.06325 µM) | relative viability ([1]; first compound 0.2 µM) | relative viability ([2]; first compound 0.01 µM) | relative viability ([2]; first compound 0.03162 µM) | relative viability ([2]; first compound 0.1 µM) | relative viability ([2]; first compound 0.3162 µM) | relative viability ([2]; first compound 1 µM) | relative viability ([3]; first compound 0.002 µM) | relative viability ([3]; first compound 0.006325 µM) | relative viability ([3]; first compound 0.06325 µM) | relative viability ([3]; first compound 0.2 µM) | relative viability ([4]; first compound 0.01 µM) | relative viability ([4]; first compound 0.03162 µM) | relative viability ([4]; first compound 0.1 µM) | relative viability ([4]; first compound 0.3162 µM) | relative viability ([4]; first compound 1 µM)
NCI-H3122 | 0.773 | 0.85 | 0.838 | 0.809 | 0.999 | 0.932 | 1.01 | 0.992 | 0.996 | 1.02 | 1.02 | 1.02 | 1 | 0.248 | 0.256 | 0.219 | 0.25 | 0.251
LCLC-97TM1 | 0.983 | 0.94 | 0.906 | 0.863 | 0.908 | 0.976 | 1.03 | 0.909 | 0.905 | 0.309 | 0.818 | 0.74 | 0.483 |  | 0.218 | 0.203 | 0.209 | 0.279
NCI-H647 | 0.159 | 0.171 | 0.211 | 0.117 | 1.13 | 0.974 | 1.14 | 0.925 | 0.854 | 0.825 | 0.964 | 1.15 | 0.969 | 0.377 | 0.48 | 0.487 | 0.609 | 0.439
NCI-H838 | 0.275 | 0.261 | 0.305 | 0.258 | 0.996 | 1.02 | 1.02 | 1.08 | 1.18 | 0.903 | 1.05 | 0.698 | 0.817 | 0.465 | 0.558 | 0.483 | 0.599 | 0.594
H3255 | 0.326 | 0.317 | 0.387 | 0.367 | 0.625 | 0.838 | 0.794 | 0.84 | 0.939 | 0.659 | 0.792 | 0.806 | 0.76 | 0.512 | 0.564 | 0.617 | 0.739 | 0.731
NCI-H1437 | 0.316 | 0.382 | 0.36 | 0.357 | 1.33 | 1.25 | 1.16 | 1.21 | 1.31 | 0.572 | 0.681 | 0.608 | 0.66 | 0.525 | 0.531 | 0.454 | 0.575 | 0.509
LU99A | 0.498 | 0.664 | 0.498 | 0.462 | 0.772 | 0.906 | 0.878 | 0.864 | 0.837 | 1.14 | 1.07 | 1.21 | 1.24 |  | 0.622 | 0.632 | 0.597 | 0.595
HCC-827 | 0.241 | 0.344 | 0.296 | 0.248 | 1.07 | 0.992 | 1.05 | 1.06 | 0.969 | 1 | 1.01 | 1.05 | 0.982 | 0.558 | 0.551 | 0.546 | 0.547 | 0.559
HCC-366 | 0.563 | 0.621 | 0.644 | 0.54 | 1.01 | 0.956 | 0.974 | 0.969 | 0.938 | 1.04 | 1.13 | 1.14 | 0.982 | 0.319 | 0.328 | 0.346 | 0.365 | 0.413
BEN | 0.255 | 0.279 | 0.257 | 0.311 |  | 0.656 | 0.517 | 0.804 | 0.696 | 0.643 | 0.843 | 0.85 | 0.672 | 1.05 | 1.04 | 0.916 | 1.08 | 0.925
NCI-H23 | 0.667 | 0.748 | 0.867 | 0.726 | 1.1 | 1.02 | 0.964 | 0.947 | 1.12 | 0.942 | 1.04 | 1.15 | 0.853 | 0.342 | 0.438 | 0.364 | 0.515 | 0.55
201T | 0.61 | 0.593 | 0.593 | 0.461 | 1.13 | 1.09 | 1.1 | 1.15 | 0.996 | 1.06 | 1.11 | 1.13 | 1.08 | 0.719 | 0.729 | 0.737 | 0.783 | 0.705
NCI-H520 | 0.205 | 0.201 | 0.162 | 0.139 | 0.675 | 1.02 | 0.688 | 0.799 | 0.936 | 0.623 | 0.83 | 0.874 | 0.439 | 0.606 | 0.78 | 0.644 | 0.751 | 0.6
NCI-H727 | 0.322 | 0.497 | 0.338 | 0.565 | 0.698 | 0.981 | 1.04 | 1.23 | 0.913 | 0.625 | 0.856 | 0.851 | 0.824 | 0.395 |  | 0.393 | 0.359 | 0.4
HCC-15 | 0.585 | 0.61 | 0.828 | 0.61 | 0.999 | 1.01 | 1.16 | 1.01 | 1.08 | 0.919 | 1.04 | 1.16 | 1 | 0.326 | 0.338 | 0.382 | 0.417 | 0.406
LCLC-103H | 0.386 | 0.573 | 0.532 | 0.394 | 0.651 | 0.897 | 0.734 | 0.819 | 0.894 | 1.05 | 1.12 | 1.23 | 1.25 | 0.589 | 0.725 | 0.68 | 0.646 | 0.723
NCI-H460 | 0.45 | 0.536 | 0.584 | 0.462 | 0.942 | 1.07 | 1.01 | 1.03 | 0.997 | 1.01 | 0.98 | 1.06 | 0.974 | 0.087 | 0.16 | 0.283 | 0.108 | 0.287
EPLC-272H | 0.359 | 0.33 | 0.376 | 0.279 |  | 0.762 | 0.693 | 0.758 | 0.793 | 0.76 | 0.894 | 0.856 | 0.88 |  | 0.278 | 0.281 | 0.251 | 0.285
